Test results reported in US20240366539A1, “METHODS FOR TREATING AUTISM SPECTRUM DISORDERS” (INSTITUT NATIONAL DE LA SANTÉ ET DE LA RECHERCHE MÉDICALE, priority 2021, published 2024).

Legend:
[1] = test system: Oprm1^−/− mice; assay: Behavioral tests of social, repetitive and anxious behavior (oral NaBr, KBr; data not shown); settings: mouse, in vivo
Procedure: (§1) Mice were treated with vehicle (NaCl 0.9%; ip, 10 or 20 ml/kg), NaBr (Sigma-Aldrich, Saint-Quentin Fallavier, France) administered either chronically (once a day, 10, 30, 70, 125, 250 and 500 mg/kg; i.p. or per os, in a volume of 20 ml/kg—except for combination with VU0155041: […]) or acutely (250 mg/kg, 20 ml/kg), KBr (Sigma-Aldrich, Saint-Quentin Fallavier, France; 145 mg/kg; i.p., 20 ml/kg), bumetanide (R&D systems, Minneapolis, USA, 0.5 and 2 mg/kg; i.p., 20 ml/kg) or VU0155041 (Cayman Chemicals, Ann Arbor, USA, once a day, i.p., 1 mg/kg, 10 ml/kg). […] When treatment was given chronically, behavioral testing started 8 days after beginning of daily administration. Treatment was maintained for 8 to 18 consecutive days (see timelines in FIGS. 1 and 4), allowing thorough behavioral phenotyping. On testing days, or when treatment was given acutely, drugs (or vehicle) were administered 30 min before behavioral assays.
(§2) Also, we assessed the behavioral effects of chronic administration of another bromide salt, KBr.

[2] = dose of KBr equivalent to 250 mg/kg NaBr; pilot experiments
Description: as §2

[3] = test system: Oprm1^−/− mice; assay: Three-chamber social preference test; type: in vivo, mouse
Procedure: as §1
Three-chamber social preference test. The test apparatus consisted of a transparent acrylic box (exterior walls blinded with black plastic film); partitions divided the box into three equal chambers (40×20×22.5 cm). Two sliding doors (8×5 cm) allowed transitions between chambers. Cylindrical wire cages (18×9 cm, 0.5 cm diameter-rods spaced 1 cm apart) were used to contain the mouse interactor and object (soft-toy mouse). The test was performed in low-light conditions (15 lx) to minor anxiety. Stimulus wild-type mice were habituated to confinement in wire cages for 2 days before the test (20 min/day). On testing day, the experimental animal was introduced to the middle chamber and allowed to explore the whole apparatus for a 10-min habituation phase (wire cages empty) after the sliding doors were raised. The experimental mouse was then confined back in the middle-chamber while the experimenter introduced an unfamiliar wild type age and sex-matched animal into a wire cage in one of the side-chambers and a soft toy mouse (8×10 cm) in the second wire cage as a control for novelty. Then the experimental mouse was allowed to explore the apparatus for a 10-min interaction phase. The time spent in each chamber, the time spent in nose contact with each wire cage (empty: habituation; containing a mouse or a toy: interaction), as well as the number of these nose contacts were scored a posteriori on video recordings using an ethological keyboard (Labwatcher®, View Point, Lyon, France) by trained experimenters. […] The relative position of stimulus mice (versus toy) was counterbalanced between groups.

[4] = test system: Oprm1^−/− mice; assay: Direct social interaction test; type: in vivo, mouse; settings: for social interaction in wild-type controls: Oprm1+/+ mice
Procedure: as §1
When assessing effects of chronic administration, experiments were performed successively (timelines in FIGS. 1 and 4) (51, 60). Testing order was chosen to minimize the incidence of anxiety on later assays. Direct social interaction and novelty suppressed feeding were performed in 4 equal square arenas (open fields, 50×50 cm) separated by 35 cm-high opaque grey Plexiglas walls over a white Plexiglas platform (View Point, Lyon, France). Stimulus mice used for the three-chamber test were 8-14-week-old grouped-housed male or female wild-type mice, socially naive to the experimental animals.
Direct social interaction test. On testing day, a pair of unfamiliar mice (not cage mates, age-, sex- and treatment-matched) was introduced in each arena for 10 min (15 lx). Each arena received a black plastic floor (transparent to infrared). […] The mean duration of nose and paw contacts was calculated from previous data (61-63).

[5] = test system: Oprm1^−/− mice; assay: Tail-immersion test; type: in vivo, mouse; settings: 50° C., NaBr 70 mg/kg, VU0155041 1 mg/kg, alone or combined, chronic
Procedure: as §1
Tail-immersion test. Nociceptive thresholds were assessed by immersing the tail of the mice (5 cm from the tip) successively into water baths at 48° C., 50° C. and 52° C. The latency to withdraw the tail was measured at each temperature, with a cutoff of 10 s.

[6] = test system: Oprm1^−/− mice; assay: Y-maze exploration; type: in vivo, mouse
Procedure: as §1
Y-maze exploration. Spontaneous alternation behavior was used to assess perseverative behavior (65-67). Each Y-maze consisted of three connected Plexiglas arms (15×15×17 cm) covered with distinct wall patterns (15 lx). Floors were covered with lightly sprayed fresh sawdust to limit anxiety. Each mouse was placed at the center of a maze and allowed to freely explore this environment for 5 min. The pattern of entries into each arm was quoted on video-recordings. Spontaneous alternations (SPA), i.e. successive entries into each arm forming overlapping triplet sets, alternate arm returns (AAR) and same arm returns (SAR) were scored, and the percentage of SPA, AAR and SAR was calculated as following: total/(total arm entries−2)*100.

[7] = test system: rodent models of ASD; settings: preclinical studies; cited from earlier work
[8] = test system: Oprm1^−/− mice; assay: Marble-burying; type: in vivo, mouse; settings: Oprm1−/− mice; chronic NaBr 10-500 mg/kg or bumetanide 0.5 and 2 mg/kg
Procedure: as §1
Marble-burying. Marble burying was used as a measure of perseverative behavior (68). Mice were introduced individually in transparent cages (21×11×17 cm) containing 20 glass marbles (diameter: 1.5 cm) evenly spaced on 4-cm deep fresh sawdust. To prevent escapes, each cage was covered with a filtering lid. Light intensity in the room was set at 40 lux. The animals were removed from the cages after 15 min, and the number of marbles buried more than half in sawdust was quoted.

[9] = test system: Oprm1^−/− mice; assay: Novelty-suppressed feeding; type: in vivo, mouse; settings: chronic NaBr (since the lowest dose tested) or bumetanide
Procedure: as §1
Novelty-suppressed feeding. Novelty-suppressed feeding (NSF) was measured in 24-hr food-deprived mice, isolated in a standard housing cage for 30 min before individual testing. Three pellets of ordinary lab chow were placed on a white tissue in the center of each arena, lit at 60 lx. Each mouse was placed in a corner of an arena and allowed to explore for a maximum of 15 min. Latency to feed was measured as the time necessary to bite a food pellet. Immediately after an eating event, the mouse was transferred back to home cage (free from cage-mates) and allowed to feed on lab chow for 5 min. Food consumption in the home cage was measured.

[10] = test system: Oprm1^−/− mice; assay: Motor stereotypies; type: in vivo, mouse
Procedure: as §1
Motor stereotypies. To detect motor stereotypies in mutant versus wild-type animals, mice were individually placed in clear standard home cages (21×11×17 cm) filled with 3-cm deep fresh sawdust for 10 min (64). Light intensity was set at 30 lux. Trained experimenters scored numbers of head shakes, as well as rearing, burying, grooming, circling episodes and total time spent burying by direct observation.

[11] = test system: patients; settings: cited from earlier work
[12] = Oprm1−/− mice, NaBr 70 mg/kg, VU0155041 1 mg/kg, alone or combined, once daily, chronic
[13] = chronic NaBr 10-500 mg/kg or bumetanide 0.5 and 2 mg/kg
[14] = chronic NaBr (since lowest dose, 10 mg/kg) or bumetanide 0.5 and 2 mg/kg
[15] = Oprm1−/− mice, chronic once daily, NaBr 10-500 mg/kg (effect from 125 mg/kg) or bumetanide 0.5 and 2 mg/kg, D9
[16] = Oprm1−/− mice, one week after cessation of chronic treatment (NaBr over 70 mg/kg, highest doses; bumetanide depending on the dose)
[17] = Oprm1−/− mice, chronic NaBr 10-500 mg/kg or bumetanide 0.5 and 2 mg/kg

[Br-].[K+] [KBr, potassium bromide]
social, repetitive and anxious behavior, compared with NaBr treatment [1]: fully replicated, if not exceeded, by KBr | toxicity [2]: toxic

O=C(Nc1cc(Cl)cc(Cl)c1)C1CCCC[C@H]1C(=O)O (stereo partly shown) [VU0155041]
frequency of nose contacts with the mouse versus the toy ([3]; NaBr 70 mg/kg or VU0155041 1 mg/kg, once daily, chronic): sufficient to restore more frequent nose contacts with the mouse versus the toy | duration of nose contacts with the mouse versus the toy ([3]; NaBr 70 mg/kg, VU0155041 1 mg/kg, alone or combined, once daily, chronic): increased the duration of nose contacts with the mouse to that of the toy | duration of nose contacts [4, 12]: partially rescued the duration of their nose contacts | grooming episodes after social contact [4, 12]: suppressed grooming episodes after a social contact | effect in the social interaction test, pilot experiment ([4]; liminal dose of VU0155041 (1 mg/kg i.p.)): no detectable effect in the social interaction test | flicking latency (nociceptive threshold) [5]: ineffective | perseverative same arm returns ([6]; chronic VU0155041 1 mg/kg): sufficient to suppress perseverative same arm returns

NC[C@H](CC(=O)O)c1ccc(Cl)cc1 [arbaclofen]
autistic-like behaviors / phenotype in animal models [7]: improve autistic-like behaviors in animal models

CCCCNc1cc(C(=O)O)cc(S(N)(=O)=O)c1Oc1ccccc1 [bumetanide]
social preference ratio [3, 13]: significant but partial recovery of social preference ratio | duration of nose contacts with the mouse versus the toy [3, 14]: dose-dependently increased the duration of nose contacts with the mouse, but failed to reduce the duration of nose contacts with the toy | number of nose contacts with the mouse versus the toy [3, 14]: at the lowest dose restored a preference for making more frequent nose contacts with the mouse over the toy | excessive marble burying [8]: failed to suppress excessive marble burying in Oprm1^−/− mice | autistic-like behaviors / phenotype in animal models [7]: improve autistic-like phenotype in rodent models of ASD | social interaction in wild-type controls ([4]; chronic once daily, NaBr 10-500 mg/kg or bumetanide 0.5 and 2 mg/kg): showed deleterious effects on social interaction parameters in WT controls | social interaction in wild-type controls ([4]; chronic once daily, NaBr 10-500 mg/kg or bumetanide 0.5 and 2 mg/kg, listed as Bumetanide): at the highest dose, it impaired social interaction in wild-type controls | social interaction deficit ([4]; Oprm1−/− mice, chronic once daily i.p., NaBr 10-500 mg/kg or bumetanide 0.5 and 2 mg/kg, D9): had only partial effects | number of nose contacts ([4]; Oprm1−/− mice, chronic once daily, NaBr 10-500 mg/kg (effect from 125 mg/kg) or bumetanide 0.5 and 2 mg/kg (effect at low dose), D9): increased the number of nose contacts | mean duration of nose contacts [4, 15]: failed to increase significantly the duration of nose contacts | mean duration of paw contacts [4, 15]: failed to increase significantly | number of paw contacts [4, 15]: failed to increase significantly | grooming after social contact ([4]; Oprm1−/− mice, chronic once daily, NaBr 10-500 mg/kg or bumetanide 0.5 and 2 mg/kg, D9): suppressed grooming episodes, notably those occurring after social contact, since the lowest dose tested | duration of nose contacts [4, 16]: beneficial effects of bumetanide were still detectable | grooming after social contact [4, 16]: still detectable | number of following episodes ([4]; chronic once daily, NaBr 10-500 mg/kg (both mouse lines) or bumetanide (at low dose), D9): increased | latency to eat ([9]; Oprm1−/− mice): had no detectable effect on either latency to eat | food intake ([9]; both mouse lines): had no detectable effect | number of head shakes [10, 17]: suppressed circling and head shakes in mutant mice | stereotypic circling episodes [10, 17]: suppressed circling and head shakes in mutant mice | number of rearing episodes ([10]; both mouse lines (Oprm1−/− and Oprm1+/+), chronic NaBr or bumetanide): reduced the number of rearing episodes in both mouse lines | perseverative same arm returns [6, 13]: globally failed to suppress those | autistic behavior in small cohorts of patients [11]: relieve autistic behavior in small cohorts of patients | clinical benefit in a larger clinical trial [11]: failed to be confirmed in a larger clinical trial, except for a reduction of repetitive behavior
